Results taken from the supplement of paper PMC8253809.

Legend:
DIPGX29 [1] = H3.3 K27M diffuse intrinsic pontine glioma line; experiment: EC50 (inflection of fitted growth-inhibition curve) (log10 M)
Outline: (§1)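 Treatment used a pin tool and a 10-point threefold dilution series, mean top concentration 35 μM, run in triplicate on patient-derived pHGG/DIPG cell lines and astrocyte controls in 1% Geltrex-coated 384-well plates. Plates were kept at 37 °C, 5% CO2 for 7 days (iAstro: 3 days). Log2-transformed CellTiter-Glo luminescence was scaled per plate to % activity between negative (solvent) and positive control wells and pooled before fitting. EC50 and maximal response (yFin) came from the three- or four-parameter log-logistic fit chosen by lowest AICc.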

DIPGX37 [2] = H3.3 K27M diffuse intrinsic pontine glioma line; experiment: as above
Outline: as §1

HGGX39 [3] = paediatric high-grade glioma line; experiment: as above
Outline: as §1

HGGX6 [4] = H3.3 G34R paediatric high-grade glioma line; experiment: as above
Outline: as §1

DIPGX29 [5] = experiment: maximal growth inhibition (yFin) relative to DMSO / staurosporine; higher = more efficacious
Outline: as §1

DIPGX37 [6] = experiment: as above
Outline: as §1

HGGX39 [7] = experiment: as above
Outline: as §1

HGGX6 [8] = experiment: as above
Outline: as §1

DIPGX29 [9] = experiment: area under dose-response curve of % growth inhibition (log2 RLU vs DMSO / staurosporine), 1e-11 to 1e-4 M (% x log10 M); higher = more growth inhibition
Outline: (§2)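 Patient-derived pHGG/DIPG cell lines and astrocytes were plated in 384-well plates coated with 1% Geltrex and treated in triplicate with a 10-point threefold dilution series whose mean top concentration was 35 μM, for 7 days (3 days for iAstro) at 37 °C and 5% CO2. CellTiter-Glo luminescence was log2-transformed and scaled on each plate to % activity between solvent and positive controls. Area under the curve came from the trapezoid rule applied to a fitted log-logistic curve, or to a smoothing spline where the sigmoid fit failed.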

DIPGX37 [10] = experiment: as above
Outline: as §2

HGGX39 [11] = experiment: as above
Outline: as §2

HGGX6 [12] = experiment: as above
Outline: as §2

Row | SMILES | EC50 (log10 M) (DIPGX29 [1]) | EC50 (log10 M) (DIPGX37 [2]) | EC50 (log10 M) (HGGX39 [3]) | EC50 (log10 M) (HGGX6 [4]) | maximal growth inhibition (DIPGX29 [5]) [%] | maximal growth inhibition (DIPGX37 [6]) [%] | maximal growth inhibition (HGGX39 [7]) [%] | maximal growth inhibition (HGGX6 [8]) [%] | area under dose-response curve (DIPGX29 [9]) | area under dose-response curve (DIPGX37 [10]) | area under dose-response curve (HGGX39 [11]) | area under dose-response curve (HGGX6 [12])
1 | Cc1ccc(NC2=CC(=O)c3sc(C)nc3C2=O)cc1 [RYUVIDINE] | -6.12 | -5.7 | -5.76 | -6.18 | 97.5 | 110 | 98.1 | 90.5 | 207 | 187 | 169 | 197
2 | CC[C@@H](C(=O)[C@@H](C)[C@@H](O)[C@H](C)[C@@H]1O[C@@H]([C@@H](CC)C(=O)O)CC[C@@H]1C)[C@H]1O[C@]2(C=C[C@@H](O)[C@]3(CC[C@@](C)([C@H]4CC[C@](O)(CC)[C@H](C)O4)O3)O2)[C@H](C)C[C@@H]1C [SALINOMYCIN] | -5.32 | -6.53 | -6.01 | -5.03 | 69.7 | 62.6 | 73.9 | 60.5 | 106 | 153 | 153 | 85.6
3 | Clc1ccc(C(Cn2ccnc2)OCc2csc3c(Cl)cccc23)c(Cl)c1 (stereo not drawn) [SERTACONAZOLE] | -4.81 | -4.87 | -4.95 | -4.82 | 64.2 | 84.7 | 61.9 | 62.2 | 51.2 | 73.6 | 72.3 | 50.7
4 | CN[C@H]1CC[C@@H](c2ccc(Cl)c(Cl)c2)c2ccccc21 [SERTRALINE] | -4.86 | -4.82 | -4.83 | -4.79 | 85.3 | 86.5 | 91.4 | 81 | 73.3 | 70 | 83.8 | 63.3
